Our source for the IC50 values is patent EP4813992A1, “POLYARYL DERIVATIVE AND USE THEREOF” (Hangzhou HealZen Therapeutics Co., Ltd., priority 2023, dated 2025).

The structures appear in SMILES notation. A value given as a limit tells only on which side of the number the result lay.

HPK1 kinase, sequence (Q92918 whole entry): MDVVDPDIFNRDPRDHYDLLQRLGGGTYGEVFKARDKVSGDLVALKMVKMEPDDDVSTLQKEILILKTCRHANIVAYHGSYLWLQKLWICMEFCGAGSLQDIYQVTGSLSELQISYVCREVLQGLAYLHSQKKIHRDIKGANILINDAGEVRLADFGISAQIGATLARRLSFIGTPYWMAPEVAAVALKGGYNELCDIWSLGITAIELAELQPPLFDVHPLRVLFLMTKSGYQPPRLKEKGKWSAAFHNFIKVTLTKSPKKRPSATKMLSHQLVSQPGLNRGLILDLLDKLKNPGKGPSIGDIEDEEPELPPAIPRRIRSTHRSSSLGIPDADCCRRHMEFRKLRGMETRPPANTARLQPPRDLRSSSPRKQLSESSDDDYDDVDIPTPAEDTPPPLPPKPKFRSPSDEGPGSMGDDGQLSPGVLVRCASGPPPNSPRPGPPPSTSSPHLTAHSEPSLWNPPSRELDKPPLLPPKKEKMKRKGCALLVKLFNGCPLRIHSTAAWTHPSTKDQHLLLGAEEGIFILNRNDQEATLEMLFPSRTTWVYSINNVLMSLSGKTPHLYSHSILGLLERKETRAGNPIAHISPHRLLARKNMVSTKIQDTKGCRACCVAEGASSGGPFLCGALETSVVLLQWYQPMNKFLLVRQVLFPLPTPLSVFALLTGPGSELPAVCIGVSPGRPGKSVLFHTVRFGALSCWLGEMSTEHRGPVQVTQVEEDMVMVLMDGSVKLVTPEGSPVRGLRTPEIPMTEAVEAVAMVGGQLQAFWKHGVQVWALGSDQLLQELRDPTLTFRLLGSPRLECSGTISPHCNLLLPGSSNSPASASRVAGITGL

The assay addresses HPK1 kinase (Homo sapiens, UniProt Q92918). Description: Lantha screen assay, inhibitory effect on HPK1 kinase. The format is biochemical. The note with it: initial compound concentration 1 µM. Here is the method: The Lantha screen assay is used to evaluate the inhibitory effect of the compounds on HPK1 kinase. • a) Kinase buffer: 50 mM HEPES (pH 7.5), 10 mM MgCl2, 4 mM DTT, 0.01% Tween-20, 0.01% BSA. • b) Compound Preparation: The compound is diluted with DMSO, and the initial detection concentration of the compound is 1 µM and is diluted to the corresponding concentration. • c) Kinase response and termination: A kinase solution is prepared by adding kinase buffer, the kinase solution and the compound are added to the test plate to be incubated at room temperature for 10 minutes. Fluorescein-PKC and ATP are added to the kinase buffer to form a substrate solution, and 5 µl of the substrate solution is added to the test plate to start the reaction to be incubated at room temperature for 90 minutes; then, 10 µl of a mixture of antibody and EDTA is added to terminate the reaction to be incubated at room temperature for 60 minutes. • d) The date is read by Envision instrument to plot a curve with the Log concentration of the inhibitor as the X-axis and the inhibition rate as the Y-axis, and then the formula Y=Bottom + (Top-Bottom)/(1+(IC50/X)^HillSlope) is used to obtain IC50. Table 1 Inhibitory activity the compounds of the invention on HPK1 kinase
As for `CCOc1cc(-c2cnc3[nH]cc(-c4ccc(C(=O)N(C)C)cc4)c3c2)ccc1C1=CCN(CC2CN(c3ccc(N4CCC(=O)NC4=O)c(C)c3)C2)CC1` [compound 137], the 50% inhibitory concentration (IC50) (as a rule, the concentration at which inhibition is half-maximal) was under 10 nM.
With `Cc1cc(-c2cnc3[nH]cc(-c4ccc(C(=O)N(C)C)cc4)c3n2)cc(C)c1C1=CCN(C2CC(C(=O)c3ccc(F)c(N4CCC(=O)NC4=O)c3)C2)CC1` (stereo not shown) [compound 037] the figure was under 10 nM; with `Cc1cc(-c2cnc3[nH]cc(-c4ccc(C(=O)N(C)C)cc4)c3n2)cc(C)c1C1=CCN(CC2CN(c3cccc(C4CCC(=O)NC4=O)c3)C2)CC1` (stereo not shown) [compound 025], under 10 nM; with `Cc1cc(-c2cnc3[nH]cc(-c4ccc(C(=O)N(C)C)cc4)c3n2)cc(C)c1C1=CCN(CC2CN(c3ccc(NC4CCC(=O)NC4=O)c(F)c3)C2)CC1` (stereo not shown) [compound 019], under 10 nM.
Consider `Cc1cc(-c2cnc3[nH]cc(-c4ccc(C(=O)N(C)C)cc4)c3n2)cc(C)c1C1=CCN(CC2CCN(c3ccc(C(=O)NC4CCC(=O)NC4=O)cc3)C2)CC1` (stereo not shown) [compound 074], for which the IC50 is under 10 nM.
The compound `COc1cc(N2CC(CN3CC=C(c4c(C)cc(-c5cnc6scc(-c7ccc(C(=O)N(C)C)cc7)c6n5)cc4C)CC3)C2)ccc1C(=O)NC1CCC(=O)NC1=O` (stereo not shown) [compound 083] yielded a half-maximal inhibitory concentration (IC50) of under 10 nM.
On to `Cc1cc(-c2cnc(N)c(Oc3cnn(C4CCN(C)CC4)c3)n2)cc(C)c1C1=CCN(CC2CN(c3ccc(C(=O)NC4CCC(=O)NC4=O)cc3)C2)CC1` (stereo not shown) [compound 095], for which the IC50 was under 10 nM.
In turn, `Cc1cc(N2CC(CN3CC=C(c4c(C)cc(-c5cnc6[nH]cc(-c7cccc(C#N)c7F)c6c5)cc4C)CC3)C2)ccc1N1CCC(=O)NC1=O` [compound 101] registered an IC50 of under 10 nM.
With `COc1ccc(C(=O)C2CCC(N3CC=C(c4c(C)cc(-c5cnc6[nH]cc(-c7ccc(C(=O)N(C)C)cc7)c6n5)cc4C)CC3)C2)cc1N1CCC(=O)NC1=O` (stereo not shown) [compound 044] the figure was under 10 nM.
In the case of `Cc1cc(N2CC(CN3CC=C(c4c(C)cc(-c5cnc(N)c(Oc6ccc(C(=O)N(C)C)cc6)n5)cc4C)CC3)C2)ccc1N1CCC(=O)NC1=O` [compound 091], the IC50 is under 10 nM.
With `Cc1cc(N2CC(CN3CC=C(c4ccc(-c5cnc6[nH]cc(-c7ccc(C(=O)N(C)C)cc7)c6n5)cc4F)CC3)C2)ccc1N1CCC(=O)NC1=O` [compound 133] the figure was under 10 nM.
In turn, `Cc1cc(N2CC3(CC(N4CC=C(c5c(C)cc(-c6cnc7[nH]cc(-c8ccc(C(=O)N(C)C)cc8)c7n6)cc5C)CC4)C3)C2)ccc1N1CCC(=O)NC1=O` [compound 034] had a half-maximal inhibitory concentration (IC50) of under 10 nM.
In turn, `Cc1cc(-c2cnc3[nH]cc(-c4ccc(C(=O)N(C)C)cc4)c3c2)cc(C)c1C1=CCN(CC2CCN(C(=O)c3ccc(Cl)c(N4CCC(=O)NC4=O)c3)CC2)CC1` [compound 126] yielded a half-maximal inhibitory concentration (IC50) of under 10 nM.
`Cc1cc(-c2cnc3[nH]cc(-c4cnc5[nH]ccc5c4)c3n2)cc(C)c1C1=CCN(C2CN(c3ccc(C(=O)NC4CCC(=O)NC4=O)cc3)C2)CC1` (stereo not shown) [compound 070]: the half-inhibitory concentration (IC50) is under 10 nM.
For the compound `COc1ccc(N2CCC(C)(CN3CC=C(c4c(C)cc(-c5cnc6[nH]cc(-c7ccc(C(=O)N(C)C)cc7)c6n5)cc4C)CC3)C2)cc1N1CCC(=O)NC1=O` (stereo not shown) [compound 035], the IC50 is under 10 nM.
With `Cc1cc(-c2cnc3[nH]cc(-c4ccc(C(=O)N(C)C)cc4)c3n2)cc(C)c1C1=CCN(CC2CN(C3=CC(=O)N(C4CCC(=O)NC4=O)C3=O)C2)CC1` (stereo not shown) [compound 088], the 50% inhibitory concentration (IC50) is under 10 nM.
Take `Cc1cc(-c2cnc3[nH]cc(-c4ccc(C(=O)N(C)C)cc4)c3n2)cc(C)c1C1=CCN(CC(=O)Cc2ccc(C3CCC(=O)NC3=O)c(F)c2)CC1` (stereo not shown) [compound 006]: the IC50 was under 10 nM.
As for `Cc1cc(-c2cnc3[nH]cc(-c4ccc(C(=O)N(C)C)cc4)c3n2)cc(C)c1C1=CCN(CC2CN(c3ccc4c(c3)c(N3CCC(=O)NC3=O)nn4C)C2)CC1` [compound 143], the IC50 is under 10 nM.
`Cc1cc(-c2cnc3[nH]cc(-c4ccc(C(=O)N(C)C)cc4)c3n2)cc(C)c1C1=CCN(C(=O)CCc2cc(F)c(N3CCC(=O)NC3=O)c(F)c2)CC1` [compound 047]: the IC50 was under 10 nM.
The compound `COCC(C)N1CCC(n2cc(-c3c[nH]c4ncc(-c5cc(C)c(C6=CCN(CC7CN(c8ccc(N9CCC(=O)NC9=O)c(C)c8)C7)CC6)c(C)c5)cc34)cn2)CC1` (stereo not shown) [compound 128] returned an IC50 of under 10 nM.
As for `Cc1cc(-c2cnc3[nH]cc(-c4ccc(C(=O)N(C)C)c5ccccc45)c3n2)cc(C)c1C1=CCN(C2CN(c3ncc(C(=O)NC4CCC(=O)NC4=O)o3)C2)CC1` (stereo not shown) [compound 064], the figure is under 10 nM; as for `Cc1cc(-c2cnc3[nH]cc(-c4ccc(C(=O)N(C)C)cc4)c3n2)cc(C)c1C1=CCN(C2CN(c3ccc(C(=O)NC4CCC(=O)NC4=O)cc3)C2)CC1` (stereo not shown) [compound 005], under 10 nM.
With `Cc1cc(-c2cnc3[nH]cc(-c4ccc(C(=O)N(C)C)cc4)c3n2)cc(C)c1C1=CCN(CC2CN(C(=O)c3ccc(Cl)c(N4CCC(=O)NC4=O)c3)C2)CC1` [compound 124], the IC50 is under 10 nM.
Regarding `Cc1cc(-c2cnc3[nH]cc(-c4ccc(C(=O)N(C)C)cc4)c3n2)cc(C)c1C1=CCN(CC#Cc2ccc(C(=O)NC3CCC(=O)NC3=O)cc2)CC1` (stereo not shown) [compound 026], the IC50 is under 10 nM.
As for `Cc1cc(N2CC(CN3CC=C(c4c(C)cc(-c5cnc6[nH]cc(-c7ccc(N8CCOCC8)nc7)c6c5)cc4C)CC3)C2)ccc1N1CCC(=O)NC1=O` [compound 103], the figure is under 10 nM; as for `Cc1cc(-c2cnc3[nH]nc(-c4ccc(C(=O)N(C)C)cc4)c3n2)cc(C)c1C1=CCN(CC2CCN(c3ccc(N4CCC(=O)NC4=O)c(F)c3)C2)CC1` (stereo not shown) [compound 076], under 10 nM; as for `Cc1cc(-c2cnc3[nH]cc(-c4ccc(C(=O)N5CC6(COC6)C5)cc4)c3n2)cc(C)c1C1=CCN(CC2CN(c3ccc(C(=O)NC4CCC(=O)NC4=O)cc3)C2)CC1` (stereo not shown) [compound 075], under 10 nM.
`Cc1ccc(C(=O)N2CC(CN3CC=C(c4ccc(-c5cnc6[nH]cc(-c7ccc(C(=O)N(C)C)cc7)c6n5)cc4CN(C)C)CC3)C2)cc1N1CCC(=O)NC1=O` [compound 051] had a half-inhibitory concentration (IC50) of under 10 nM.
As for `Cc1cc(-c2cnc3[nH]cc(-c4ccc(C(=O)N(C)C)cc4)c3n2)cc(C)c1C1=CCN(CC2CCN(C(=O)c3ccc(Cl)c(N4CCC(=O)NC4=O)c3)CC2)CC1` [compound 120], the figure is under 10 nM; as for `Cc1cc(-c2cnc3[nH]cc(-c4ccc(C(=O)N(C)C)cc4)c3n2)cc(C)c1C1=CCN(CC2CN(c3ccc4c(c3)c(C3CCC(=O)NC3=O)nn4C)C2)CC1` (stereo not shown) [compound 145], under 10 nM; as for `CN(C)C(=O)c1ccc(-c2c[nH]c3ncc(-c4cnc(C5=CCN(CC6CN(c7ccc(C(=O)NC8CCC(=O)NC8=O)cn7)C6)CC5)c(F)c4)nc23)cc1` (stereo not shown) [compound 054], under 10 nM.
With `Cc1cc(N2CC(CN3CC=C(c4c(C)cc(-c5cnc(N)c(Oc6cnn(C7CCN(C)CC7)c6)n5)cc4C)CC3)C2)ccc1N1CCC(=O)NC1=O` [compound 092] the figure was under 10 nM; with `Cc1cc(-c2cnc(N)c(OCc3ccc(C(=O)N(C)C)cc3)n2)cc(C)c1C1=CCN(CC2CN(c3ccc(C(=O)NC4CCC(=O)NC4=O)cc3)C2)CC1` (stereo not shown) [compound 094], under 10 nM; with `Cc1cc(-c2cnc3[nH]cc(-c4ccc(C(=O)N(C)C)cc4)c3n2)cc(C)c1C1=CCN(CC#Cc2cccc3c2n(C)c(=O)n3C2CCC(=O)NC2=O)CC1` (stereo not shown) [compound 046], under 10 nM.
